# ChEMBL document CHEMBL4024707, “Using gene expression database to uncover biology functions of 1,4-disubstituted 1,2,3-triazole analogues synthesized via a copper (I)-catalyzed reaction” (Eur J Med Chem, 2017)
# Assays:
# Hep 3B2 [1] = assay: Cell cycle arrest in human Hep3B cells assessed as accumulation at sub-G1 phase at 5 uM after 48 hrs by propidium iodide staining based flow cytometry (reference value: 1.5 to 6.5%); format: functional
# Hep 3B2 [2] = assay: Induction of autophagy in human Hep3B cells at 5 uM after 72 hrs by acridine orange staining based flow cytometry (reference value: 1.1 to 4%); format: functional
# Hep 3B2 [3] = assay: Cytotoxicity against human Hep3B cells after 48 hrs by MTT assay; format: functional, cell-based
# Hep 3B2 [4] = assay: Induction of autophagy in human Hep3B cells at 5 uM after 48 hrs by acridine orange staining based flow cytometry (reference value: 0.9 to 3%); format: functional
# Hep 3B2 [5] = assay: Induction of autophagy in human Hep3B cells at 20 uM after 72 hrs by acridine orange staining based flow cytometry (reference value: 1.1 to 4%); format: functional
# Hep 3B2 [6] = assay: Induction of autophagy in human Hep3B cells at 2.5 uM after 24 hrs by acridine orange staining based flow cytometry (reference value: 1.1 to 1.3%); format: functional
# Hep 3B2 [7] = assay: Induction of autophagy in human Hep3B cells at 10 uM after 24 hrs by acridine orange staining based flow cytometry (reference value: 1.1 to 1.3%); format: functional
# Hep 3B2 [8] = assay: Cell cycle arrest in human Hep3B cells assessed as accumulation at sub-G1 phase at 2.5 uM after 72 hrs by propidium iodide staining based flow cytometry (reference value: 0.6 to 3.3 %); format: functional
# Hep 3B2 [9] = assay: Induction of autophagy in human Hep3B cells at 10 uM after 48 hrs by acridine orange staining based flow cytometry (reference value: 0.9 to 3%); format: functional
# Hep 3B2 [10] = assay: Cell cycle arrest in human Hep3B cells assessed as accumulation at sub-G1 phase at 10 uM after 72 hrs by propidium iodide staining based flow cytometry (reference value: 0.6 to 3.3%); format: functional
# Hep 3B2 [11] = assay: Cell cycle arrest in human Hep3B cells assessed as accumulation at sub-G1 phase at 10 uM after 24 hrs by propidium iodide staining based flow cytometry (reference value: 1.9 to 3.6%); format: functional
# Hep 3B2 [12] = assay: Cell cycle arrest in human Hep3B cells assessed as accumulation at sub-G1 phase at 2.5 uM after 48 hrs by propidium iodide staining based flow cytometry (reference value: 1.5 to 6.5%); format: functional
# [13] = Growth inhibition of HUVEC at 50 uM after 24 hrs by MTT assay relative to control; format: cell-based; conditions: human, HUVEC cells; read-out: GI
# Hep 3B2 [14] = assay: Cell cycle arrest in human Hep3B cells assessed as accumulation at sub-G1 phase at 20 uM after 72 hrs by propidium iodide staining based flow cytometry (reference value: 0.6 to 3.3%); format: functional
# Hep 3B2 [15] = assay: Cell cycle arrest in human Hep3B cells assessed as accumulation at sub-G1 phase at 5 uM after 72 hrs by propidium iodide staining based flow cytometry (reference value: 0.6 to 3.3%); format: functional
# Hep 3B2 [16] = assay: Cell cycle arrest in human Hep3B cells assessed as accumulation at sub-G1 phase after 24 to 72 hrs by propidium iodide staining based flow cytometry; format: functional
# Hep 3B2 [17] = assay: Induction of autophagy in human Hep3B cells at 2.5 to 20 uM by acridine orange staining based flow cytometry; format: functional, cell-based; conditions: TDE = time-dependent effect
# Hep 3B2 [18] = assay: Induction of autophagy in human Hep3B cells at 2.5 uM after 72 hrs by acridine orange staining based flow cytometry (reference value: 1.1 to 4%); format: functional
# Hep 3B2 [19] = assay: Cell cycle arrest in human Hep3B cells assessed as accumulation at sub-G1 phase at 10 uM after 48 hrs by propidium iodide staining based flow cytometry (reference value: 1.5 to 6.5%); format: functional
# Hep 3B2 [20] = assay: Cell cycle arrest in human Hep3B cells assessed as accumulation at sub-G1 phase at 2.5 uM after 24 hrs by propidium iodide staining based flow cytometry (reference value: 1.9 to 3.6%); format: functional
# Hep 3B2 [21] = assay: Cell cycle arrest in human Hep3B cells assessed as accumulation at sub-G1 phase at 5 uM after 24 hrs by propidium iodide staining based flow cytometry (reference value: 1.9 to 3.6%); format: functional
# Hep 3B2 [22] = assay: Cell cycle arrest in human Hep3B cells assessed as accumulation at sub-G1 phase at 20 uM after 48 hrs by propidium iodide staining based flow cytometry (reference value: 1.5 to 6.5%); format: functional
# Hep 3B2 [23] = assay: Induction of autophagy in human Hep3B cells at 5 uM after 24 hrs by acridine orange staining based flow cytometry (reference value: 1.1 to 1.3%); format: functional
# Hep 3B2 [24] = assay: Cytotoxicity against human Hep3B cells at 20 uM after 48 hrs by MTT assay relative to control; format: functional
# Hep 3B2 [25] = assay: Cell cycle arrest in human Hep3B cells assessed as accumulation at sub-G1 phase at 2.5 to 20 uM by propidium iodide staining based flow cytometry; format: functional; conditions: TDE = time-dependent effect
# Hep 3B2 [26] = assay: Induction of autophagy in human Hep3B cells at 2.5 uM after 48 hrs by acridine orange staining based flow cytometry (reference value: 0.9 to 3%); format: functional
# Hep 3B2 [27] = assay: Cell cycle arrest in human Hep3B cells assessed as accumulation at S phase at 10 uM after 72 hrs by propidium iodide staining based flow cytometry (reference value: 16.4 to 21.1%); format: functional
# Hep 3B2 [28] = assay: Cell cycle arrest in human Hep3B cells assessed as accumulation at S phase at 20 uM after 72 hrs by propidium iodide staining based flow cytometry (reference value: 16.4 to 21.1%); format: functional
# Hep 3B2 [29] = assay: Cell cycle arrest in human Hep3B cells assessed as accumulation at G0/G1 phase at 20 uM after 72 hrs by propidium iodide staining based flow cytometry (reference value: 41.6 to 46.2%); format: functional
# Hep 3B2 [30] = assay: Induction of autophagy in human Hep3B cells after 24 to 72 hrs by acridine orange staining based flow cytometry; format: functional, cell-based
# Hep 3B2 [31] = assay: Cell cycle arrest in human Hep3B cells assessed as accumulation at G0/G1 phase at 20 uM after 24 hrs by propidium iodide staining based flow cytometry (reference value: 36.3 to 39.0%); format: functional
# Hep 3B2 [32] = assay: Cell cycle arrest in human Hep3B cells assessed as accumulation at S phase at 5 uM after 48 hrs by propidium iodide staining based flow cytometry (reference value: 20.8 to 24%); format: functional
# Hep 3B2 [33] = assay: Cell cycle arrest in human Hep3B cells assessed as accumulation at S phase at 10 uM after 24 hrs by propidium iodide staining based flow cytometry (reference value: 22.6 to 27.1%); format: functional
# Hep 3B2 [34] = assay: Cell cycle arrest in human Hep3B cells assessed as accumulation at S phase at 10 uM after 48 hrs by propidium iodide staining based flow cytometry (reference value: 20.8 to 24%); format: functional
# Hep 3B2 [35] = assay: Cell cycle arrest in human Hep3B cells assessed as accumulation at S phase at 20 uM after 48 hrs by propidium iodide staining based flow cytometry (reference value: 20.8 to 24%); format: functional
# Hep 3B2 [36] = assay: Cell cycle arrest in human Hep3B cells assessed as accumulation at S phase at 5 uM after 24 hrs by propidium iodide staining based flow cytometry (reference value: 22.6 to 27.1%); format: functional
# Hep 3B2 [37] = assay: Cell cycle arrest in human Hep3B cells assessed as accumulation at G2/M phase at 5 uM after 72 hrs by propidium iodide staining based flow cytometry (reference value: 28.7 to 32.3%); format: functional
Compound,Activity (Hep 3B2 [1]) [%],Activity (Hep 3B2 [2]) [%],IC50 (Hep 3B2 [3]) [µM],Activity (Hep 3B2 [4]) [%],Activity (Hep 3B2 [5]) [%],Activity (Hep 3B2 [6]) [%],Activity (Hep 3B2 [7]) [%],Activity (Hep 3B2 [8]) [%],Activity (Hep 3B2 [10]) [%],Activity (Hep 3B2 [11]) [%],Activity (Hep 3B2 [12]) [%],Activity (Hep 3B2 [14]) [%],Activity (Hep 3B2 [15]) [%],Activity (Hep 3B2 [17]),Activity (Hep 3B2 [18]) [%],Activity (Hep 3B2 [19]),Activity (Hep 3B2 [20]) [%],Activity (Hep 3B2 [21]) [%],Activity (Hep 3B2 [23]) [%],Activity (Hep 3B2 [26]) [%],further results
O=C1COc2ccccc2N1Cc1cn(CCC2OCCO2)nn1,14.2,12.8,16.8,5.1,57,1.3,2.4,7.9,54,22.4,6.5,65.7,18,Tde,1.9,37.4 - 41.4%,6.2,12.4,1.6,1.9,"Activity (Hep 3B2 [9]): 20.3%; inhibition at 24 h, 50 µM [13]: 21.5%; Activity (Hep 3B2 [16]): Dose-dependent effect; Activity (Hep 3B2 [22]): 57.2%; Activity (Hep 3B2 [24]): 53.4%; Activity (Hep 3B2 [25]): Tde"
CNC(=O)c1cc(Oc2ccc(NC(=O)Nc3ccc(Cl)c(C(F)(F)F)c3)cc2)ccn1 [SORAFENIB],5,6.1,11.2,1.5,84.9,2,3.2,5.3,13.7,6.9,4,65,7.2,Tde,2.3,11.8%,5.2,7.3,2.4,1.3,"Activity (Hep 3B2 [27]): 7.9%; Activity (Hep 3B2 [28]): 6.2%; Activity (Hep 3B2 [29]): 13.6%; Activity (Hep 3B2 [30]): Dose-dependent effect; Activity (Hep 3B2 [31]): 45.7%; Activity (Hep 3B2 [32]): 13.1%; Activity (Hep 3B2 [33]): 12.3%; Activity (Hep 3B2 [34]): 8.8%; inhibition at 24 h, 50 µM [13]: 60%; Activity (Hep 3B2 [16]): Dose-dependent effect; Activity (Hep 3B2 [35]): 9.6%; Activity (Hep 3B2 [36]): 19.8%; Activity (Hep 3B2 [37]): 31.3%; Activity (Hep 3B2 [24]): 68.4%; Activity (Hep 3B2 [25]): Tde"
COc1ccc(CNC(=O)Nc2ncc([N+](=O)[O-])s2)cc1,5,10.9,,6.3,15.5,4.7,5.9,1.6,1.3,5,3.4,2.1,2.4,Tde,6.4,3.3%,3.1,4.2,5.3,8.1,Activity (Hep 3B2 [27]): 21.5%; Activity (Hep 3B2 [28]): 19.5%; Activity (Hep 3B2 [29]): 43.6%; Activity (Hep 3B2 [30]): Dose-dependent effect; Activity (Hep 3B2 [9]): 5.8%; Activity (Hep 3B2 [31]): 33%; Activity (Hep 3B2 [32]): 24.6%; Activity (Hep 3B2 [33]): 23.4%; Activity (Hep 3B2 [34]): 23.2%; Activity (Hep 3B2 [35]): 20%; Activity (Hep 3B2 [36]): 25%; Activity (Hep 3B2 [22]): 3.6%; Activity (Hep 3B2 [37]): 33.9%
